Assay results published in patent publication US20040229817A1, “Inhibitors of Hepatitis C virus, compositions and treatments using the same” (priority 2003, published 2004).
Like-named read-outs stand apart in the source and are kept apart here.

Columns and labels:
in vitro = assay type: cell-based; conditions: human, three days incubation
Protocol: (§1) All compounds were tested in an HCV reporter replicon assay. Briefly, a reporter replicon containing Huh-7 hepatoma cells was grown in DMEM (Invitrogen, Carlsbad, Calif.) and seeded in 96-well black wall, clear-bottom plates (Costar®; Coming Incorporated). Cells were allowed to settle at 37° C., 5% CO2 for 30 minutes. The compounds were serially diluted in separate 96 well plates and […] of each concentration was added to the appropriate well in triplicate. The plates are incubated at 37° C., 5% CO2 for three days.
(§2) Following three days of incubation, the media was aspirated from the wells and cells are washed with 100 μl PBS. After removing the PBS, 20 μl of 1× Passive Lysis Buffer (Promega Corp., Madison, Wis.) is added to each well, and the cells are allowed to lyse at room temperature for 15 minutes. Antiviral activity and cytotoxicity is measured following lysis using the dual luciferase kit (Promega Corp., Madison, Wis.). The percent antiviral inhibition and percent cytotoxicity for each concentration is calculated after subtracting the background values of media only wells from wells containing cells, and subtratcting 100 from the percent ratio of the value in the compound well to the cell only control well.

[1] = Solubility (Sol.) reported with the replicon assay
HCV reporter replicon = HCV reporter replicon assay, antiviral activity (dual luciferase); assay type: cell-based; conditions: for EC50: Hepatitis C virus
Protocol: as §1, §2

[2] = Huh-7, 72 h, 7-pt Assay, replicon-containing Huh-7 cells, three days incubation, read-out: EC50
[3] = Huh-7, 72 h, Extended 8-pt Assay, replicon-containing Huh-7 cells, three days incubation, read-out: EC50
[4] = 7-pt Assay, value marked (exp), read-out: EC50 (exp)

Row | SMILES | CC50 at 3 days (in vitro; 7-pt Assay) [µM] | CC50 at 3 days (in vitro; Extended 8-pt Assay) [µM] | Sol. ([1]; 7-pt Assay) [µM] | Sol. ([1]; 7-pt Assay, unit not given) | Sol. ([1]; Extended 8-pt Assay) [µM] | CC50/EC50 (HCV reporter replicon; 7-pt Assay) | EC50 (HCV reporter replicon; [2]) [µM] | EC50 (HCV reporter replicon; [3]) [µM] | EC50 (HCV reporter replicon; [4]) [µM]
1 | O=C(NO)C1CCCCN1S(=O)(=O)c1ccc(Sc2ccncc2)cc1 (stereo not shown) [Example 13, N-hydroxy-1{[4-(pyridin-4-ylthio)phenyl]sulfonyl}piperidine-2-carboxamide] | 293 | 211 | >320 | 320 | >320 | 667 | 0.44 | 0.35 | –
2 | COC(=O)c1ccc(NC(=O)[C@H](CC(C)C)NC(=O)[C@@H](CC(=O)NO)c2ccccc2)cc1 [Example 8, methyl 4-({N-[(2S)-4-(hydroxyamino)-4-oxo-2-phenylbutanoyl]-L-leucyl}amino)benzoate] | > 320 | > 320 | <100 | 32 | <320 | 218 | 1.5 | 1.2 | –
3 | Cc1cc(CSC(C)(C)[C@@H](NS(=O)(=O)c2ccc(Oc3ccc(Br)cc3)cc2)C(=O)NO)no1 [Example 14, N^2-{[4-(4-bromophenoxy)phenyl]sulfonyl}-N^1-hydroxy-3{[(5-methylisoxazol-3-yl)methyl]thio}-D-valinamide] | 78 | 41 | >320 | 320 | <320 | 49 | 1.57 | 1.9 | –
4 | CC1(C)SCCN(S(=O)(=O)c2ccc(Oc3ccncc3)cc2)[C@H]1C(=O)NO [Example 12, (3S)—N-hydroxy-2,2-dimethyl-4-{[4-(pyridin-4-yloxy)phenyl]sulfonyl}thiomorpholine-3-carboxamide] | 320 | > 320 | >320 | 320 | >320 | 880 | 0.36 | 0.26 | –
5 | O=C(NO)[C@@H]1CCCC[C@@H]1SCCc1ccccc1 [Example 3] | ≥ 320 | 211 | >320 | 320 | >320 | 130 | 2.5 | 1.9 | –
6 | CC(=O)N1CCN(S(=O)(=O)c2ccc(Oc3ccccc3)cc2)C(C(=O)NO)C1 (stereo not shown) [Example 9, 4-acetyl-N-hydroxy-1-[(4-phenoxyphenyl)sulfonyl]piperazine-2-carboxamide] | 81 | 79 | >320 | 320 | >320 | 835 | – | 0.018 | 0.097
7 | O=C(NO)[C@@H]1CCCC[C@H]1S(=O)(=O)CCc1ccccc1 [Example 5, trans-2-Phenylethanesulfonyl-cyclohexanecarboxylic Acid Hydroxyamide] | > 320 | > 320 | >320 | 320 | >320 | 1333 | – | 0.31 | 0.24
8 | O=C(NO)[C@H]1CCCC[C@@H]1SCCc1ccc(-c2ccccc2)cc1 (relative stereo) [Example 6, trans-2-(Biphenyl-4-yl-ethylsulfanyl)cyclohexanecarboxylic Acid Hydroxyamide] | 111 | 99 | >320 | 320 | >320 | 3265 | – | 0.05 | 0.034
9 | O=C(NO)C1=C(SCCc2ccc(-c3ccccc3)cc2)CCCC1 [Example 1, 2-(2-Biphenyl-4-yl-ethylsulfanyl)-cyclohex-1-ene-carboxylic Acid Hydroxyamide] | 32 | 31 | <320 | 100 | >320 | 15 | 2.1 | 1.6 | –
10 | CS(=O)(=O)N1CCN(S(=O)(=O)c2ccc(Oc3ccc(F)cc3)cc2)[C@@H](C(=O)NO)C1 [Example 11, (2R)-1-{[4-(4-fluorophenoxy)phenyl]sulfonyl}-N-hydroxy-4-(methylsulfonyl)piperazine-2-carboxamide] | 12 | 15 | >320 | 320 | >320 | 444 | – | 0.049 | 0.027
11 | CC(C)(C)OC(=O)N1CCN(S(=O)(=O)c2ccc(Oc3ccccn3)cc2)[C@@H](C(=O)NO)C1 [Example 10, tert-butyl (3R)-3-[(hydroxyamino)carbonyl]-4-{[4-(pyridin-2-yloxy)phenyl]sulfonyl}piperazine-1-carboxylate] | 294 | 224 | >320 | 320 | >320 | 1937 | – | 0.19 | 0.15
